From patent US20250215029A1 (Recludix Pharma, Inc., priority 2022, published 2025)

Key:
[1] = target: T1, Recombinant STAT3 protein (STAT3 (G127-I722)) (Homo sapiens, UniProt P40763); experiment: STAT3 Fluorescence Polarization (FP) Assay; type: binding; settings: STAT3 (G127-I722) 25 nM, probe 5-FAM-GpYLPQTV-NH2 2 nM, 45-minute incubation; read-out: STAT3 (FP assay IC50 class)
T1 construct: Recombinant STAT3 protein (STAT3 (G127-I722))
How it was run: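 Compounds in serial dilution receive a premix of STAT3 (G127-I722, 25 nM) and fluorescent phosphotyrosine peptide 5-FAM-GpYLPQTV-NH2 (2 nM) at pH 7.4. After 45 min at room temperature, FP is measured and IC50 derived by nonlinear regression.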

[2] = target: T2, Recombinant STAT6 protein (STAT6 (W123-T658)) (Homo sapiens, UniProt P42226); experiment: STAT6 Fluorescence Polarization (FP) Assay; type: binding; settings: STAT6 (W123-T658) 250 nM, probe 5-FAM-Ap[…]-NH2 2 nM, 45-minute incubation; read-out: STAT6 (FP assay IC50 class)
T2 construct: Recombinant STAT6 protein (STAT6 (W123-T658))
T2 sequence (P42226 123-658): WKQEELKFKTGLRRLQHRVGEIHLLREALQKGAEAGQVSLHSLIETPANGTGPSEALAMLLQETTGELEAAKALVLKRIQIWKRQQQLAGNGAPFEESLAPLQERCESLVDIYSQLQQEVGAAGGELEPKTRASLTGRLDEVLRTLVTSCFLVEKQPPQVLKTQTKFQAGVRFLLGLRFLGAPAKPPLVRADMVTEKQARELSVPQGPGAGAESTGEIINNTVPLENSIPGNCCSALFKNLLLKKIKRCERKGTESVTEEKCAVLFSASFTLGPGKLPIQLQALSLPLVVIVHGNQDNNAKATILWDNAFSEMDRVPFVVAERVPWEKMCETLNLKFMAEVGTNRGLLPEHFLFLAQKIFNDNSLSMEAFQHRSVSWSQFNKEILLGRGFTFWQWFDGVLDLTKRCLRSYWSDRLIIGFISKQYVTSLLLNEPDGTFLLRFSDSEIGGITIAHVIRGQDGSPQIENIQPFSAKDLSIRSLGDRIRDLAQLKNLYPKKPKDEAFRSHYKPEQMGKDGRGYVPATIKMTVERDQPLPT
How it was run: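 STAT6 (W123-T658) at 250 nM was mixed with 2 nM 5-FAM-labeled phosphotyrosine peptide probe in HEPES pH 7.4 buffer with NaCl, EDTA, Tween 20 and DTT, then added to serially diluted compounds at 1% DMSO final. Polarization was read after 45 min at room temperature; IC50 came from nonlinear regression of mP versus log concentration.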

T1 sequence (P40763 127-722): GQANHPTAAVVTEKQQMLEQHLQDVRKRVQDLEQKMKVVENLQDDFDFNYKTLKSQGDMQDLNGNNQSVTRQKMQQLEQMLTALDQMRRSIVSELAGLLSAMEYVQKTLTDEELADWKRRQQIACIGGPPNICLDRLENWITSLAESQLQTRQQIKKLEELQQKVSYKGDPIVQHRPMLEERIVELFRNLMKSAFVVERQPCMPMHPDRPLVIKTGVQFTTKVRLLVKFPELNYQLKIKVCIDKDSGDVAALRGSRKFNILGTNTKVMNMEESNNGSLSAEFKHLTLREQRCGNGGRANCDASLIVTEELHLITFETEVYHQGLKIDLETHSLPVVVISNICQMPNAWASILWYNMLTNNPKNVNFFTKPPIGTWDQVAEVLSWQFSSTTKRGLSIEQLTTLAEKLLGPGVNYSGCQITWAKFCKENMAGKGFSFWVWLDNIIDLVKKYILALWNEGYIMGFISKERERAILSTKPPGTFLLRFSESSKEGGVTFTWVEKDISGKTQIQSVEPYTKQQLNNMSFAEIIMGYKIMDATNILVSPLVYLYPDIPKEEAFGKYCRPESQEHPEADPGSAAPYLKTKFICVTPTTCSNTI

Cn1cc(C2CN(C(=O)[C@@H]3CC[C@@H]4CCC[C@H](NC(=O)c5cc6cc(C(F)P(=O)(O)O)ccc6s5)C(=O)N43)C2)cn1 (stereo partly drawn) [Compound 716, (fluoro(2-(((3S,6S,9aS)-3-(3-(1-methyl-1H-pyrazol-4-yl)azetidine-1-carbonyl)-5-oxooctahydro-1H-pyrrolo[1,2-a]azepin-6-yl)carbamoyl)benzo [b]thiophen-5-yl)methyl) phosphonic acid]
IC50 [1]: 1 to 10 µM | IC50 [2]: 3 to 30 µM

O=C(N[C@H]1CCC[C@H]2CC[C@@H](C(=O)N3CC(c4cncc(Cl)c4F)C3)N2C1=O)c1cc2cc(C(F)P(=O)(O)O)ccc2s1 (stereo partly drawn) [Compound 717, ((2-(((3S,6S,9aS)-3-(3-(5-chloro-4-fluoropyridin-3-yl)azetidine-1-carbonyl)-5-oxooctahydro-1H-pyrrolo[1,2-a]azepin-6-yl)carbamoyl)benzo [b]thiophen-5-yl)fluoromethyl) phosphonic acid]
IC50 [1]: < 0.1 µM | IC50 [2]: 3 to 30 µM

O=C(N[C@H]1CCCC[C@H]2CC[C@@H](C(=O)N3CC(Cc4ccccn4)C3)N2C1=O)c1cc2cc(C(F)(F)P(=O)(O)O)ccc2s1 [Compound 718, (difluoro(2-(((3S,6S,10aS)-5-oxo-3-(3-(pyridin-2-ylmethyl)azetidine-1-carbonyl)decahydropyrrolo[1,2-a]azocin-6-yl)carbamoyl)benzo [b]thiophen-5-yl)methyl) phosphonic acid]
IC50 [1]: < 0.1 µM | IC50 [2]: 0.3 to 3 µM

CS(=N)(=O)c1cnc(C2CN(C(=O)[C@@H]3CC[C@@H]4CCCC[C@H](NC(=O)c5cc6cc(C(F)(F)P(=O)(O)O)ccc6s5)C(=O)N43)C2)nc1 (stereo partly drawn) [Compound 719, (difluoro(2-(((3S,6S,10aS)-3-(3-(5-(S-methylsulfonimidoyl)pyrimidin-2-yl)azetidine-1-carbonyl)-5-oxodecahydropyrrolo [1,2-a]azocin-6-yl)carbamoyl)benzo [b]thiophen-5-yl)methyl) phosphonic acid]
IC50 [1]: 0.1 to 1 µM | IC50 [2]: 3 to 30 µM

O=C(N[C@H]1CCC[C@H]2CC[C@@H](C(=O)N3CC(c4cccnc4)C3)N2C1=O)c1cc2cc(CP(=O)(O)O)ccc2[nH]1 [Compound 720, ((2-(((3S,6S,9aS)-5-oxo-3-(3-(pyridin-3-yl)azetidine-1-carbonyl)octahydro-1H-pyrrolo[1,2-a]azepin-6-yl)carbamoyl)-1H-indol-5-yl)methyl) phosphonic acid]
IC50 [1]: 1 to 10 µM | IC50 [2]: 3 to 30 µM

COC1(c2cncnc2C)CN(C(=O)[C@@H]2CC[C@@H]3CCC[C@H](NC(=O)c4cc5cc(C(F)(F)P(=O)(O)O)ccc5s4)C(=O)N32)C1 [Compound 721, (difluoro(2-(((3S,6S,9aS)-3-(3-methoxy-3-(4-methylpyrimidin-5-yl)azetidine-1-carbonyl)-5-oxooctahydro-1H-pyrrolo[1,2-a]azepin-6-yl)carbamoyl)benzo [b]thiophen-5-yl)methyl) phosphonic acid]
IC50 [1]: 0.1 to 1 µM | IC50 [2]: 3 to 30 µM

COC1(c2cnccc2C)CN(C(=O)[C@@H]2CC[C@@H]3CCC[C@H](NC(=O)c4cc5cc(C(F)(F)P(=O)(O)O)ccc5s4)C(=O)N32)C1 [Compound 722, (difluoro(2-(((3S,6S,9aS)-3-(3-methoxy-3-(4-methylpyridin-3-yl)azetidine-1-carbonyl)-5-oxooctahydro-1H-pyrrolo[1,2-a]azepin-6-yl)carbamoyl)benzo [b]thiophen-5-yl)methyl) phosphonic acid]
IC50 [1]: 0.1 to 1 µM | IC50 [2]: 3 to 30 µM

COC1(c2cncnc2)CN(C(=O)[C@@H]2CC[C@@H]3CCC[C@H](NC(=O)c4cc5cc(C(F)(F)P(=O)(O)O)ccc5s4)C(=O)N32)C1 [Compound 723, (difluoro(2-(((3S,6S,9aS)-3-(3-methoxy-3-(pyrimidin-5-yl)azetidine-1-carbonyl)-5-oxooctahydro-1H-pyrrolo[1,2-a]azepin-6-yl)carbamoyl)benzo [b]thiophen-5-yl)methyl) phosphonic acid]
IC50 [1]: 0.1 to 1 µM | IC50 [2]: 3 to 30 µM

O=C(N[C@H]1CCCC[C@H]2CC[C@@H](C(=O)N3CC(Oc4cccnc4)C3)N2C1=O)c1cc2cc(C(F)(F)P(=O)(O)O)ccc2s1 [Compound 724, (difluoro(2-(((3S,6S,10aS)-5-oxo-3-(3-(pyridin-3-yloxy)azetidine-1-carbonyl)decahydropyrrolo[1,2-a]azocin-6-yl)carbamoyl)benzo [b]thiophen-5-yl)methyl) phosphonic acid]
IC50 [1]: < 0.1 µM | IC50 [2]: 0.3 to 3 µM

O=C(N[C@H]1CCCC[C@H]2CC[C@@H](C(=O)N[C@H](CO)Cc3cccnc3)N2C1=O)c1cc2cc(C(F)(F)P(=O)(O)O)ccc2s1 [Compound 725, (difluoro(2-(((3S,6S,10aS)-3-(((S)-1-hydroxy-3-(pyridin-3-yl)propan-2-yl)carbamoyl)-5-oxodecahydropyrrolo [1,2-a]azocin-6-yl)carbamoyl)benzo [b]thiophen-5-yl)methyl) phosphonic acid]
IC50 [1]: 0.1 to 1 µM | IC50 [2]: 3 to 30 µM

O=C(N[C@H]1CCCC[C@H]2CC[C@@H](C(=O)NCc3ccn[nH]3)N2C1=O)c1cc2cc(C(F)(F)P(=O)(O)O)ccc2s1 [Compound 726, ((2-(((3S,6S,10aS)-3-(((212-pyrazol-3-yl)methyl)carbamoyl)-5-oxodecahydropyrrolo [1,2-a]azocin-6-yl)carbamoyl)benzo [b]thiophen-5-yl)difluoromethyl) phosphonic acid]
IC50 [1]: 0.1 to 1 µM | IC50 [2]: 3 to 30 µM

O=C(N[C@H]1CCCC[C@H]2CC[C@@H](C(=O)N[C@@H](CO)Cc3cccnc3)N2C1=O)c1cc2cc(C(F)(F)P(=O)(O)O)ccc2s1 [Compound 727, (difluoro(2-(((3S,6S,10aS)-3-(((R)-1-hydroxy-3-(pyridin-3-yl)propan-2-yl)carbamoyl)-5-oxodecahydropyrrolo [1,2-a]azocin-6-yl)carbamoyl)benzo [b]thiophen-5-yl)methyl) phosphonic acid]
IC50 [1]: 1 to 10 µM | IC50 [2]: 3 to 30 µM

O=C(N[C@H]1CC[C@H]2CC[C@@H](C(=O)N3CC(c4ccccn4)C3)N2C1=O)c1cc2cc(C(F)(F)P(=O)(O)O)ccc2s1 [Compound 728, (difluoro(2-(((3S,6S,8aS)-5-oxo-3-(3-(pyridin-2-yl)azetidine-1-carbonyl)octahydroindolizin-6-yl)carbamoyl)benzo [b]thiophen-5-yl)methyl) phosphonic acid]
IC50 [1]: 0.1 to 1 µM | IC50 [2]: 3 to 30 µM

O=C(N[C@H]1C/C=C\C[C@@H]2[C@H](O)C[C@@H](C(=O)N3CC(C(=O)N4CCOCC4)C3)N2C1=O)c1cc2cc(C(F)(F)P(=O)(O)O)ccc2s1 [Compound 730, (difluoro(2-(((1R,3S,6S,10aR,Z)-1-hydroxy-3-(3-(morpholine-4-carbonyl)azetidine-1-carbonyl)-5-oxo-1,2,3,5,6,7,10,10a-octahydropyrrolo[1,2-a]azocin-6-yl)carbamoyl)benzo [b]thiophen-5-yl)methyl) phosphonic acid]
IC50 [1]: 1 to 10 µM | IC50 [2]: 3 to 30 µM

O=C(N[C@H]1CC[C@H]2CC[C@@H](C(=O)N3CC(C(=O)N4CCOCC4)C3)N2C1=O)c1cc2cc(C(F)(F)P(=O)(O)O)ccc2s1 [Compound 731, (difluoro(2-(((3S,6S,8aS)-3-(3-(morpholine-4-carbonyl)azetidine-1-carbonyl)-5-oxooctahydro-indolizin-6-yl)carbamoyl)benzo [b]thiophen-5-yl)methyl) phosphonic acid]
IC50 [1]: 1 to 10 µM | IC50 [2]: 3 to 30 µM

O=C(N[C@H]1CC[C@H]2CC[C@@H](C(=O)N3CC(n4ccnc4)C3)N2C1=O)c1cc2cc(C(F)(F)P(=O)(O)O)ccc2s1 [Compound 732, ((2-(((3S,6S,8aS)-3-(3-(1H-imidazol-1-yl)azetidine-1-carbonyl)-5-oxooctahydro-indolizin-6-yl)carbamoyl)benzo [b]thiophen-5-yl)difluoromethyl) phosphonic acid]
IC50 [1]: 1 to 10 µM | IC50 [2]: 3 to 30 µM

Cn1cc(C2CN(C(=O)[C@@H]3CC[C@@H]4CCC[C@H](NC(=O)c5cc6cc(C(F)P(=O)(O)O)ccc6s5)C(=O)N43)C2)c(C#N)n1 (stereo partly drawn) [Compound 734, ((2-(((3S,6S,9aS)-3-(3-(3-cyano-1-methyl-1H-pyrazol-4-yl)azetidine-1-carbonyl)-5-oxooctahydro-1H-pyrrolo[1,2-a]azepin-6-yl)carbamoyl)benzo [b]thiophen-5-yl)fluoromethyl) phosphonic acid]
IC50 [1]: 0.1 to 1 µM | IC50 [2]: 0.3 to 3 µM
